{"source": "paper PMC4300089", "about": "“Structure-Guided Design of Selective Epac1 and Epac2 Agonists” (PLoS Biology, 2015)", "key": {"[1]": {"target": "T1, Epac2^Δ280,K450A (Mus musculus, UniProt Q9EQZ6, K468A)", "T1 construct": "made in house", "T1 sequence (Q9EQZ6 281-993 isoform Q9EQZ6-3 K450A)": "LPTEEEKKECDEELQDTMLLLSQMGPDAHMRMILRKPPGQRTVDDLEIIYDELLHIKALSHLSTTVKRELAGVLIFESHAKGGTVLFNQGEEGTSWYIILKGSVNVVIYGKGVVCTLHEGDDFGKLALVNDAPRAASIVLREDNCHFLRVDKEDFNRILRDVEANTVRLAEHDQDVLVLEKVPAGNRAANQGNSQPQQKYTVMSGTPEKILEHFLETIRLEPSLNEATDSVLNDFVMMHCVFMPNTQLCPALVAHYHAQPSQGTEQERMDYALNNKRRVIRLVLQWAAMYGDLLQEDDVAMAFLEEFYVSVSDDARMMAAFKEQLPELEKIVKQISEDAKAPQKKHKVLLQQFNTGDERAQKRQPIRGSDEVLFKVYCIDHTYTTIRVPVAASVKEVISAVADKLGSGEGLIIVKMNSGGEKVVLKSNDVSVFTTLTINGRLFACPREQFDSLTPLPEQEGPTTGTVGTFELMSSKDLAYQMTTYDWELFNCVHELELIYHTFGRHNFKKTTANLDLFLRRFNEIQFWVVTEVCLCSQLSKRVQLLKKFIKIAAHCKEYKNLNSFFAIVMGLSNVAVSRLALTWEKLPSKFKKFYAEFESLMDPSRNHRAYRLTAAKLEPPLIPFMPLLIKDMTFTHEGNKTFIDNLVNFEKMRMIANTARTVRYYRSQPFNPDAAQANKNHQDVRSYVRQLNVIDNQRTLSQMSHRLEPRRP", "test": "Epac activation assay, Epac2 K450A mutant", "assay_type": "biochemical", "description": "(§1) Murine Epac2 was used as all previous structural studies were performed with it.\n(§2) The activity of Epac was determined by a fluorescence assay. […] The fluorescence intensity of Rap1B•mGDP is approximately twice that of free mGDP, and thus, nucleotide exchange can be observed as a decay in fluorescence upon the addition of excess unlabeled GDP."}, "[2]": {"target": "T2, Epac2^Δ280 (Mus musculus, UniProt Q9EQZ6)", "T2 construct": "made in house", "T2 sequence (Q9EQZ6 281-993 isoform Q9EQZ6-3)": "T1 sequence (Q9EQZ6 281-993 isoform Q9EQZ6-3 K450A) with A170K", "test": "Epac activation assay (Rap1B•mGDP fluorescence nucleotide exchange), Epac2^Δ280", "assay_type": "biochemical", "description": "as §1, §2"}, "[3]": {"test_system": "PKA", "test": "Cellular PKA activity: P-VASP band shift in U2OS Epac1 and Epac2 cell lines", "assay_type": "cell-based", "description": "Rap•GTP levels were determined by precipitating GTP-bound Rap specifically from cell lysates and subsequent western Blotting with an α-Rap antibody (Santa Cruz Biotechnology). To generate stable cell lines, U2OS cells were transfected with pBabe-Flag-Epac1 (Epac1, homo sapiens, amino acids 1–881) or pBabe-Flag-Epac2 (Epac2, mus musculus, amino acids 1–993), selected for Epac expression and maintained under selection with 2 mg/l puromycin. The cells were cultured according to standard protocols. The activity of PKA was determined by western blotting with a monoclonal α-VASP antibody (BD Transduction Laboratories). Blots were developed by enhanced chemiluminescence (ECL) and the use of X-ray films; for quantification films were scanned. The intensities of the Rap•GTP bands and the upper band of VASP (P-VASP) were determined for each condition in ImageJ and normalized to the stimulation with forskolin and IBMX for each blot."}}, "note": "Numbering of substitutions follows the chain as printed."}
{"smiles": "Nc1ncnc2c1nc(SCc1ccccc1)n2[C@@H]1O[C@@H]2CO[P@](O)(=S)O[C@H]2[C@H]1O", "note": "[S-220, Sp-8-BnT-cAMPS]", "values": [{"measurement": "kobs", "setting": "[1]; 0.001 μM compound", "value": "3.1e-05", "unit": "s⁻¹"}, {"measurement": "kobs", "setting": "[1]; 0.003 μM compound", "value": "3.7e-05", "unit": "s⁻¹"}, {"measurement": "kobs", "setting": "[1]; 0.005 μM compound", "value": "4.4e-05", "unit": "s⁻¹"}, {"measurement": "kobs", "setting": "[1]; 0.008 μM compound", "value": "5.2e-05", "unit": "s⁻¹"}, {"measurement": "kobs", "setting": "[1]; 0.02 μM compound", "value": 0.00011, "unit": "s⁻¹"}, {"measurement": "kobs", "setting": "[1]; 0.03 μM compound", "value": 0.000139, "unit": "s⁻¹"}, {"measurement": "kobs", "setting": "[1]; 0.04 μM compound", "value": 0.000168, "unit": "s⁻¹"}, {"measurement": "kobs", "setting": "[1]; 0.05 μM compound", "value": 0.000199, "unit": "s⁻¹"}, {"measurement": "kobs", "setting": "[1]; 0.06 μM compound", "value": 0.000232, "unit": "s⁻¹"}, {"measurement": "kobs", "setting": "[1]; 0.07 μM compound", "value": 0.00026, "unit": "s⁻¹"}, {"measurement": "kobs", "setting": "[1]; 0.08 μM compound", "value": 0.000277, "unit": "s⁻¹"}, {"measurement": "kobs", "setting": "[1]; 0.1 μM compound", "value": 0.000306, "unit": "s⁻¹"}, {"measurement": "kobs", "setting": "[1]; 0.2 μM compound", "value": 0.000564, "unit": "s⁻¹"}, {"measurement": "kobs", "setting": "[1]; 0.3 μM compound", "value": 0.000705, "unit": "s⁻¹"}, {"measurement": "kobs", "setting": "[1]; 0.4 μM compound", "value": 0.000743, "unit": "s⁻¹"}, {"measurement": "kobs", "setting": "[1]; 0.5 μM compound", "value": 0.000763, "unit": "s⁻¹"}, {"measurement": "kobs", "setting": "[1]; 0.6 μM compound", "value": 0.000845, "unit": "s⁻¹"}, {"measurement": "kobs", "setting": "[1]; 0.7 μM compound", "value": 0.000882, "unit": "s⁻¹"}, {"measurement": "kobs", "setting": "[1]; 0.8 μM compound", "value": 0.000882, "unit": "s⁻¹"}, {"measurement": "kobs", "setting": "[1]; 1 μM compound", "value": 0.000894, "unit": "s⁻¹"}, {"measurement": "kobs", "setting": "[1]; 2 μM compound", "value": 0.000904, "unit": "s⁻¹"}, {"measurement": "kobs", "setting": "[1]; 3 μM compound", "value": 0.000886, "unit": "s⁻¹"}, {"measurement": "kobs", "setting": "[1]; 4 μM compound", "value": 0.000912, "unit": "s⁻¹"}, {"measurement": "kobs", "setting": "[1]; 5 μM compound", "value": 0.000879, "unit": "s⁻¹"}, {"measurement": "kobs", "setting": "[1]; 6 μM compound", "value": 0.00102, "unit": "s⁻¹"}, {"measurement": "kobs", "setting": "[1]; 7 μM compound", "value": 0.00106, "unit": "s⁻¹"}, {"measurement": "kobs", "setting": "[1]; 8 μM compound", "value": 0.00109, "unit": "s⁻¹"}, {"measurement": "kobs", "setting": "[1]; 10 μM compound", "value": 0.00103, "unit": "s⁻¹"}, {"measurement": "kmax-value", "setting": "[1]; Epac2^Δ280,K450A", "value": "reduced to that of S-000"}, {"measurement": "kobs", "setting": "[2]; 0.04 μM compound", "value": 0.000468, "unit": "s⁻¹"}, {"measurement": "kobs", "setting": "[2]; 0.05 μM compound", "value": 0.000508, "unit": "s⁻¹"}, {"measurement": "kobs", "setting": "[2]; 0.06 μM compound", "value": 0.000631, "unit": "s⁻¹"}, {"measurement": "kobs", "setting": "[2]; 0.07 μM compound", "value": 0.000864, "unit": "s⁻¹"}, {"measurement": "kobs", "setting": "[2]; 0.08 μM compound", "value": 0.000721, "unit": "s⁻¹"}, {"measurement": "kobs", "setting": "[2]; 0.1 μM compound", "value": 0.000827, "unit": "s⁻¹"}, {"measurement": "kobs", "setting": "[2]; 0.2 μM compound", "value": 0.00131, "unit": "s⁻¹"}, {"measurement": "kobs", "setting": "[2]; 0.3 μM compound", "value": 0.00149, "unit": "s⁻¹"}, {"measurement": "kobs", "setting": "[2]; 0.4 μM compound", "value": 0.00167, "unit": "s⁻¹"}, {"measurement": "kobs", "setting": "[2]; 0.5 μM compound", "value": 0.00155, "unit": "s⁻¹"}, {"measurement": "kobs", "setting": "[2]; 0.6 μM compound", "value": 0.00184, "unit": "s⁻¹"}, {"measurement": "kobs", "setting": "[2]; 0.7 μM compound", "value": 0.00188, "unit": "s⁻¹"}, {"measurement": "AC50", "setting": "[2]; Epac2^Δ280", "value": 100, "unit": "nM"}, {"measurement": "Rel. kmax", "setting": "[2]; Epac2^Δ280, maximal activity relative to cAMP", "value": 7.7}, {"measurement": "rel. P-VASP", "setting": "[3]; PKA, average of Epac1 and Epac2 cell lines, relative to induction with forskolin and IBMX, Fig. 6C", "value": 0.1961}, {"measurement": "activation of PKA in cells", "setting": "[3]; U2OS cell lines", "value": "very low"}]}
